Results as given in patent US20110086759A1, “CHEMICAL COMPOUNDS” (SYNGENTA CROP PROTECTION, INC., priority 2007, published 2011).

How the values were obtained:
Format in all cases: in vivo
[1] = system: Alopecurus myosuroides (ALOMY); assay: Pre-emergence biological efficacy, glasshouse pot test; details: 312 h, pre-emergence, 1,000 g/ha, evaluated after 13 days (100=total damage; 0=no damage), read-out: Percentage damage ALOMY
Procedure, shortened: (§1)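 One day after seeds were sown in pots, compound was sprayed at 1000 or 250 g/ha. Plants were kept at 24/16 °C with 14 h light and 65% humidity and watered twice daily; damage was graded at day 13 (0 none, 100 total).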

[2] = system: Amaranthus retoflexus (AMARE); assay: as above; details: Amaranthus retroflexus, 312 h; pre-emergence, 1,000 g/ha, evaluated after 13 days (100=total damage; 0=no damage); read-out: Percentage damage AMARE
Procedure, shortened: as §1

[3] = system: Echinochloa crus-galli (ECHCG); assay: as above; details: 312 h, pre-emergence, 1,000 g/ha, evaluated after 13 days (100=total damage; 0=no damage), read-out: Percentage damage ECHCG
Procedure, shortened: as §1

[4] = system: Ipomea hederaceae (IPOHE); assay: as above; details: Ipomoea hederacea, 312 h; pre-emergence, 1,000 g/ha, evaluated after 13 days (100=total damage; 0=no damage); read-out: Percentage damage IPOHE
Procedure, shortened: as §1

Setaria faberi (SETFA) [5] = assay: as above; details: 312 h, pre-emergence, 1,000 g/ha, evaluated after 13 days (100=total damage; 0=no damage), read-out: Percentage damage SETFA
Procedure, shortened: as §1

Solanum nigrum (SOLNI) [6] = assay: as above; details: 312 h, pre-emergence, 1,000 g/ha, evaluated after 13 days (100=total damage; 0=no damage), read-out: Percentage damage SOLNI
Procedure, shortened: as §1

[7] = system: Alopecurus myosuroides (ALOMY); assay: Post-emergence biological efficacy, glasshouse pot test; details: 312 h, post-emergence, 1,000 g/ha, evaluated after 13 days (100=total damage; 0=no damage), read-out: Percentage damage caused to weed species, ALOMY
Procedure, shortened: (§2)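 Plants were sown in standard soil and grown 8 days in a glasshouse (24/16° C. day/night, 14 hours light, 65% humidity), then sprayed post-emergence at 1000 or 250 g/ha from acetone/water (50:50) with 0.5% Tween 20. Damage was scored visually after 13 days (0 = none, 100 = total).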

[8] = system: Amaranthus retoflexus (AMARE); assay: as above; details: Amaranthus retroflexus, 312 h; post-emergence, 1,000 g/ha, evaluated after 13 days (100=total damage; 0=no damage); read-out: Percentage damage caused to weed species, AMARE
Procedure, shortened: as §2

[9] = system: Echinochloa crus-galli (ECHCG); assay: as above; details: 312 h, post-emergence, 1,000 g/ha, evaluated after 13 days (100=total damage; 0=no damage), read-out: Percentage damage caused to weed species, ECHCG
Procedure, shortened: as §2

[10] = system: Ipomea hederaceae (IPOHE); assay: as above; details: Ipomoea hederacea, 312 h; post-emergence, 1,000 g/ha, evaluated after 13 days (100=total damage; 0=no damage); read-out: Percentage damage caused to weed species, IPOHE
Procedure, shortened: as §2

Setaria faberi (SETFA) [11] = assay: as above; details: 312 h, post-emergence, 1,000 g/ha, evaluated after 13 days (100=total damage; 0=no damage), read-out: Percentage damage caused to weed species, SETFA
Procedure, shortened: as §2

Solanum nigrum (SOLNI) [12] = assay: as above; details: 312 h, post-emergence, 1,000 g/ha, evaluated after 13 days (100=total damage; 0=no damage), read-out: Percentage damage caused to weed species, SOLNI
Procedure, shortened: as §2

| SMILES | pest or weed control at 1000 g/ha [1] [%] | pest or weed control at 1000 g/ha [2] [%] | pest or weed control at 1000 g/ha [3] [%] | pest or weed control at 1000 g/ha [4] [%] | pest or weed control at 1000 g/ha (Setaria faberi (SETFA) [5]) [%] | pest or weed control at 1000 g/ha (Solanum nigrum (SOLNI) [6]) [%] | pest or weed control at 1000 g/ha [7] [%] | pest or weed control at 1000 g/ha [8] [%] | pest or weed control at 1000 g/ha [9] [%] | pest or weed control at 1000 g/ha [10] [%] | pest or weed control at 1000 g/ha (Setaria faberi (SETFA) [11]) [%] | pest or weed control at 1000 g/ha (Solanum nigrum (SOLNI) [12]) [%] |
| --- | --- | --- | --- | --- | --- | --- | --- | --- | --- | --- | --- | --- |
| O=C(O)c1nc(C2CC2)nc(NC2CCCCC2)c1Cl [Compound 1-35, 5-Chloro-4-cyclohexylamino-2-cyclopropyl-pyrimidine-6-carboxylic acid] | 10 | 50 | 10 | 0 | 0 | 20 | 10 | 50 | 10 | 50 | 0 | 30 |
| COC(=O)c1nc(C2CC2)nc(NCC(=O)OCc2ccccc2)c1Cl [Compound 4-265, 5-Chloro-2-cyclopropyl-6-methoxycarbonyl-4-(phenylmethoxy-carbonylmethyl-amino)pyrimidine] | 10 | 100 | 30 | 90 | 30 | 90 | 20 | 100 | 20 | 60 | 40 | 70 |
| COC(=O)c1nc(C2CC2)nc(N[C@H](C)c2cccc3ccccc23)c1Cl [4-184 (R), (R)-5-Chloro-2-cyclopropyl-6-methoxycarbonyl-4-[1-(naphth-1-yl)ethylamino]-pyrimidine] | 0 | 0 | 0 | 0 | 0 | 0 | 10 | 80 | 40 | 70 | 20 | 60 |
